Test results as given in publication PMC5512454 (Bioorganic & medicinal chemistry, 2017).
Blank lines part the entries; values can stand above or below the molecule they belong to.

Columns and labels:
[1] = system: cocaine-maintained responding; experiment: Cocaine self-administration in rhesus monkeys; format: in vivo
[2] = system: food-maintained responding; experiment: Food-maintained behavior in rhesus monkeys; format: in vivo
[3] = biological target: human D3 receptor (Homo sapiens, UniProt P35462); experiment: Radioligand displacement assay, hD3
[4] = biological target: D3 receptors in rat brain slices (Rattus norvegicus, UniProt P19020); experiment: In-vitro autoradiography of coronal rat brain slices; format: binding; conditions: proven by displacement with BP897 (1 μM)
[5] = system: D3 receptors in rat brain; experiment: Ex-vivo autoradiography of coronal rat brain sections; format: in vivo; conditions: co-injection of BP897; region of interest-to-background ratios; 60 min p.i.
[6] = system: dopamine D3 receptors in vivo; experiment: PET imaging study in rat

D3 receptors in rat brain slices, sequence (P19020 whole entry): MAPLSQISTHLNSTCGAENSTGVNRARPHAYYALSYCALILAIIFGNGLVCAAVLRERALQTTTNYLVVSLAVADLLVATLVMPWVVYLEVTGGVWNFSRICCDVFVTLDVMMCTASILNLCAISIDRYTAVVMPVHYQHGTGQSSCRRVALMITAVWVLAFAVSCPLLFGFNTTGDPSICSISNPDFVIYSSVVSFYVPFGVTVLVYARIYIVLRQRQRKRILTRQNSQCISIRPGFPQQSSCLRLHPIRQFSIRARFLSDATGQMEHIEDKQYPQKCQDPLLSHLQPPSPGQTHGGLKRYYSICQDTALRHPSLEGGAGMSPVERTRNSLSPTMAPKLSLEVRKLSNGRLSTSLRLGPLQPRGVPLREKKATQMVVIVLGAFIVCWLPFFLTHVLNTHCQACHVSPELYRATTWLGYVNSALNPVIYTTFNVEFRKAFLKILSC
human D3 receptor, sequence (P35462 whole entry): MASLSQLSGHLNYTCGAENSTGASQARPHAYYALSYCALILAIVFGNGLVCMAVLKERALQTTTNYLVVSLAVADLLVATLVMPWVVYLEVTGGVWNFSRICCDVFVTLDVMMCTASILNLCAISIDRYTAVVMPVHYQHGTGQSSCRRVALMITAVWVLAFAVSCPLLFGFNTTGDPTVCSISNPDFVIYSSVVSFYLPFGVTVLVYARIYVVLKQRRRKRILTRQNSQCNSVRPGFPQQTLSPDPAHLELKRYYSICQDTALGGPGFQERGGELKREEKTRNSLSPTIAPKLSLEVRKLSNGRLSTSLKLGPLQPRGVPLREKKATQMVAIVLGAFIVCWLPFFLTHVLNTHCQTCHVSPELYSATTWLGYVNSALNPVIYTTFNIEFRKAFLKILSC

Compound: COc1ccccc1N1CCN(CCCCNC(=O)c2cc3ccccn3n2)CC1 [Compound 1]
- Cocaine-maintained responding, % of control values ([1]; pretreatment 0.32 mg/kg, 0.03 mg/kg per injection i.v. cocaine, group average): approximately 20%
- Effect of various pretreatment doses on cocaine-maintained responding ([1]; various doses (Figure S2)): dose-related decreases
- Food-maintained responding following the i.v. self-administration component (food 2) ([2]; food 2): did not appreciably alter
- Reduction of food-maintained behavior during food 1 session ([2]; pretreatment 0.32 mg/kg, food 1 (before cocaine component)): approximately 30%
- Food 1 and 2 responding at low and intermediate doses ([2]; pretreatment 0.1 and 0.18 mg/kg): did not markedly decrease
- Duration of action of behaviorally active doses ([2]; suggested from food 2 components in sessions of i.v. saline availability): < 2 h

Compound: CC(C)(C)c1nc(N2CCN(CCCCNC(=O)c3cc4ccccc4s3)CC2)cc(C(F)(F)F)n1 [Compound 9, N-(4-(4-(2-tert-butyl-6-(trifluoromethyl)pyrimidin-4-yl)piperazin-1-yl)butyl)benzo[b]thiophene-2-carboxamide]
- D3 selectivity over all biogenic amine receptors investigated [3]: 1000–20000 fold

- Binding in rat brain slices, in-vitro autoradiography [4]: D3-specific binding
- Radioligand displaced by BP897, third ventricle (3V) [5]: 5–14%
- Brain uptake of the radioligand in CNS structures [6]: marginal brain uptake
- Mean whole pituitary gland uptake of the radioligand ([6]; 40 min p.i.): 0.394 ± 0.016 % ID/g
Compound: O=C(NCCCCN1CCN(c2ccccc2OCC[18F])CC1)c1cc2ccccn2n1 [[^18F]2, N-[4-[4-(2-[^18F]fluoroethoxyphenyl)-piperazin-1-yl]-butyl]-pyrazolo-[1,5-a]pyridin-2-carboxamide]
- Blood-brain-barrier (BBB) penetration [6]: only low blood-brain-barrier (BBB) penetration
- Reduction of uptake in the pituitary gland by pretreatment with BP897 [6]: 25%
